From US10905646B2, “Thermoplastic polyurethane film for delivery of active agents to skin surfaces” (Lubrizol Advanced Materials, Inc., priority 2014, dated 2021)
Values joined by “and” are separate entries in the source; they are usually repeats but may differ in a detail not shown here. Equal values may be shown once.

Key:
[1] = Concentration of active in wet polymer K after soaking, by HPLC; type: physicochemical; settings: replicate samples
Procedure: The sample is placed in approximately 5 mL of soaking solution (TABLE 17) and suspended for 30 minutes in the solution. The sample is periodically checked to ensure it remains totally immersed in the solution. At the end of soaking time, the sample is removed and reweighed (final sample diameter, about 2.1 cm). The concentration of caffeine in the wet polymer sample is measured by HPLC and is shown in TABLE 18 (HPLC: Shimadzu Scientific Prominence System; Column: […].: 250×4.6 mm; Carrier Phase: A: Water, B: Methanol (65:35 v/v); Oven Temperature: Room Temperature (approx. 22° C.); Flow Rate: 1 mL/min.; UV detection: 254 nm). […] At the conclusion of the 30 min. soaking period the sample is removed from the dimethylmethoxy chromanyl palmitate solution and re-weighed (TABLE 20). The final sample diameter is about 2.0 cm. […] At the conclusion of the 30 min. soaking period the sample is removed from the arbutin solution and re-weighed. The final sample diameter is about 2.2 cm. […] (TABLE 23) and suspended for 90 minutes in the solution. […] At the conclusion of the 90 min. soaking period the sample is removed from the acetyl hexapeptide-37 solution and re-weighed. The final sample diameter is about 2.2 cm. […] (TABLE 25) and suspended for 90 minutes in the acetyl hexapeptide-8 solution. […] At the end of the 90 minute soaking time, the square is removed and weighed again (final piece diameter: 2.2 cm). The same study is performed with a lower concentration of peptide, as follows. […] At the end of the soaking time, the square is removed from the low concentration acetyl hexapeptide-8 solution and weighed again (final piece diameter: 2.2 cm).

[2] = Percutaneous absorption study on pig skin, Franz diffusion cell; type: in vitro ADME, domestic pigs (Sus domesticus); settings: Franz cell receptor fluid (PBS), HPLC
Procedure: A percutaneous absorption study is performed on pig skin test samples obtained from the back of domestic pigs (Sus domesticus) weighing about 30 kg. The pig skin is dermatomed to a thickness of about 500 microns and then test discs having a diameter of 2.5 cm are sectioned from the dermatomed skin. […] The loaded films are applied to the sample discs (in contact with the stratum corneum) for 30 minutes. Different layers of the film treated skin (stratum corneum, epidermis and dermis) are separated, assayed and analyzed for the quantity of caffeine and permeation into the respective layers of the skin. The quantitative analysis for caffeine and is conducted by HPLC utilizing the instrumentation identified above.
Additionally, the same solutions utilized to load the polymer films are topically applied across the entire surface of the stratum corneum of comparative pig skin disc samples prepared as above. […]
The lower chamber contained the receptor fluid (PBS solution, Sigma-Aldrich Co. LLC). The integrity of the skin is evaluated by measuring the transepidermal water loss (TEWL). […] The collected receptor fluid is analyzed by HPLC as described above.
The quantities of caffeine that permeated into each of the three different layers of the skin samples (stratum corneum, epidermis and dermis) are collected separately as follows. […]

## OC[C@H]1O[C@@H](Oc2ccc(O)cc2)[C@H](O)[C@@H](O)[C@@H]1O [Arbutin, (2R,3S,4S,5R,6S)-2Hydroxymethyl-6(4hydroxyphenoxy)oxane-3,4,5triol]
[1]; film of polymer K soaked 30 minutes in soaking solution with 4 % arbutin, pH 5.5
  % Arbutin (w/w), vs. wet polymer: 1.42 % (w/w) and 1.61 % (w/w) (2×) and 1.45 % (w/w) and 1.78 % (w/w)

## Cn1c(=O)c2c(ncn2C)n(C)c1=O [caffeine]
[2]
  Caffeine in the collected receptor fluid: No caffeine was present
[1]; film of polymer K soaked 30 min in soaking solution with 2 % caffeine, pH 4
  % caffeine (w/w), vs. wet polymer: 2.60 % (w/w) and 2.57 % (w/w) and 2.59 % (w/w) and 2.64 % (w/w) and 2.63 % (w/w) (2×)

## CCCCCCCCCCCCCCCC(=O)Oc1cc2c(cc1OC)OC(C)(C)CC2 [dimethylmethoxy chromanyl palmitate]
[1]; film of Polymer K soaked 30 minutes in liposome soaking solution with 2 % dimethylmethoxy chromanyl palmitate
  % Dimethylmethoxy chromanyl palmitate (w/w), vs. wet polymer: 1.074 % (w/w) and 0.964 % (w/w) and 1.009 % (w/w) and 0.994 % (w/w) and 0.888 % (w/w)

## Acetyl Hexapeptide-8
[1]; polymer K soaked 90 minutes in a 1/5000 dilution with water of the 0.05 % soaking solution
  % Acetyl Hexapeptide-8 (w/w), vs. wet polymer: 0.0017 % (w/w) and 0.0019 % (w/w)
[1]; polymer K soaked 90 minutes in soaking solution with 0.05 % acetyl hexapeptide-8
  % Acetyl Hexapeptide-8 (w/w), vs. wet polymer: 0.0425 % (w/w) and 0.0420 % (w/w) and 0.0418 % (w/w) and 0.0434 % (w/w)
